Assay results from patent US20170050957A1, “4-AMINO-6-(HETEROCYCLIC)PICOLINATES AND 6-AMINO-2-(HETEROCYCLIC)PYRIMIDINE-4-CARBOXYLATES AND THEIR USE AS HERBICIDES” (Dow AgroSciences LLC, priority 2013, published 2017).
Like-named read-outs stand apart in the source and are kept apart here.

Columns and labels:
[1] = tested on: Key Grass and Sedge Weeds as well as Grass Crops; test: Post-emergent Test II herbicidal activity (Table 16); type: in vivo; conditions: post-emergence, 336 h, 14 d; for pest or weed control at 35 g/ha: 35 g ai/ha; for pest or weed control at 70 g/ha: 70 g ai/ha; for pest or weed control at 140 g/ha: 140 g ai/ha
Outline: (§1)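 Visual injury rating (0 = none, 100 = complete kill) taken 14 d after treatment, relative to untreated plants. Compounds in acetone/DMSO with crop oil concentrate and Triton X-155 were track-sprayed at 187 L/ha onto seedlings at the first-second true leaf stage.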

[2] = tested on: Key Broadleaf Weed and Crop Species; test: Post-emergent Test II herbicidal activity (Table 15); type: in vivo; conditions: post-emergence, 336 h, 14 d; for pest or weed control at 35 g/ha: 35 g ai/ha; for pest or weed control at 70 g/ha: 70 g ai/ha; for pest or weed control at 140 g/ha: 140 g ai/ha
Outline: as §1

[3] = Cyperus esculentus, yellow nutsedge (Cyperus esculentus), read-out: Visual Growth Reduction (%) 14 Days After Application, CYPES
[4] = Echinochloa crus-galli, barnyardgrass (Echinochloa crus-galli), read-out: Visual Growth Reduction (%) 14 Days After Application, ECHCG
[5] = Oryza sativa, rice (Oryza sativa), read-out: Visual Growth Reduction (%) 14 Days After Application, ORYSA
[6] = Setaria faberi, giant foxtail (Setaria faberi), read-out: Visual Growth Reduction (%) 14 Days After Application, SETFA
[7] = Triticum aestivum, wheat, spring (Triticum aestivum), read-out: Visual Growth Reduction (%) 14 Days After Application, TRZAS
[8] = Zea mays, maize, corn (Zea mays), read-out: Visual Growth Reduction (%) 14 Days After Application, ZEAMX
[9] = Abutilon theophrasti, velvetleaf (Abutilon theophrasti), read-out: Visual Growth Reduction (%) 14 Days After Application, ABUTH
[10] = Amaranthus retroflexus, redroot pigweed (Amaranthus retroflexus), read-out: Visual Growth Reduction (%) 14 Days After Application, AMARE
[11] = Brassica napus, oilseed rape, canola (Brassica napus), read-out: Visual Growth Reduction (%) 14 Days After Application, BRSNN
[12] = Chenopodium album, lambsquarters (Chenopodium album), read-out: Visual Growth Reduction (%) 14 Days After Application, CHEAL
[13] = Euphorbia heterophylla, wild poinsettia (Euphorbia heterophylla), read-out: Visual Growth Reduction (%) 14 Days After Application, EPHHL
[14] = Helianthus annuus, sunflower (Helianthus annuus), read-out: Visual Growth Reduction (%) 14 Days After Application, HELAN

SMILES | melting point [°C] | pest or weed control at 35 g/ha [1, 3] [%] | pest or weed control at 70 g/ha [1, 3] [%] | pest or weed control at 140 g/ha [1, 3] [%] | pest or weed control at 35 g/ha [1, 4] [%] | pest or weed control at 70 g/ha [1, 4] [%] | pest or weed control at 140 g/ha [1, 4] [%] | pest or weed control at 35 g/ha [1, 5] [%] | pest or weed control at 70 g/ha [1, 5] [%] | pest or weed control at 140 g/ha [1, 5] [%] | pest or weed control at 35 g/ha [1, 6] [%] | pest or weed control at 70 g/ha [1, 6] [%] | pest or weed control at 140 g/ha [1, 6] [%] | pest or weed control at 35 g/ha [1, 7] [%] | pest or weed control at 70 g/ha [1, 7] [%] | pest or weed control at 140 g/ha [1, 7] [%] | pest or weed control at 35 g/ha [1, 8] [%] | pest or weed control at 70 g/ha [1, 8] [%] | pest or weed control at 140 g/ha [1, 8] [%] | pest or weed control at 35 g/ha [2, 9] [%] | further results
COC(=O)c1nc(-c2ccc3ccoc3c2F)c(F)c(N)c1Cl [Compound 2.09] | 151 | 0 to 29 | 0 to 29 | 0 to 29 | 60 to 74 | 85 to 94 | 85 to 94 | 0 to 29 | 30 to 44 | 30 to 44 | 45 to 59 | 60 to 74 | 60 to 74 | 0 to 29 | 0 to 29 | 0 to 29 | 45 to 59 | 60 to 74 | 60 to 74 | 85 to 94 | pest or weed control at 70 g/ha [2, 9]: 85 to 94%; pest or weed control at 140 g/ha [2, 9]: 85 to 94%; pest or weed control at 35 g/ha [2, 10]: 85 to 94%; pest or weed control at 70 g/ha [2, 10]: 95 to 100%; pest or weed control at 140 g/ha [2, 10]: 95 to 100%; pest or weed control at 35 g/ha [2, 11]: 60 to 74%; pest or weed control at 70 g/ha [2, 11]: 75 to 84%; pest or weed control at 140 g/ha [2, 11]: 85 to 94%; pest or weed control at 35 g/ha [2, 12]: 95 to 100%; pest or weed control at 70 g/ha [2, 12]: 95 to 100%; pest or weed control at 140 g/ha [2, 12]: 95 to 100%; pest or weed control at 35 g/ha [2, 13]: 95 to 100%; pest or weed control at 70 g/ha [2, 13]: 95 to 100%; pest or weed control at 140 g/ha [2, 13]: 95 to 100%; pest or weed control at 35 g/ha [2, 14]: 60 to 74%; pest or weed control at 70 g/ha [2, 14]: 75 to 84%; pest or weed control at 140 g/ha [2, 14]: 85 to 94%
COC(=O)c1nc(-c2cc3occc3cc2F)c(F)c(N)c1Cl [Compound 2.10] | 109 | 0 to 29 | 0 to 29 | 30 to 44 | 60 to 74 | 60 to 74 | 85 to 94 | 0 to 29 | 30 to 44 | 30 to 44 | 60 to 74 | 60 to 74 | 75 to 84 | 0 to 29 | 30 to 44 | 60 to 74 | 0 to 29 | 30 to 44 | 45 to 59 | 60 to 74 | pest or weed control at 70 g/ha [2, 9]: 60 to 74%; pest or weed control at 140 g/ha [2, 9]: 85 to 94%; pest or weed control at 35 g/ha [2, 10]: 85 to 94%; pest or weed control at 70 g/ha [2, 10]: 95 to 100%; pest or weed control at 140 g/ha [2, 10]: 95 to 100%; pest or weed control at 35 g/ha [2, 11]: 30 to 44%; pest or weed control at 70 g/ha [2, 11]: 60 to 74%; pest or weed control at 140 g/ha [2, 11]: 75 to 84%; pest or weed control at 35 g/ha [2, 12]: 85 to 94%; pest or weed control at 70 g/ha [2, 12]: 95 to 100%; pest or weed control at 140 g/ha [2, 12]: 85 to 94%; pest or weed control at 35 g/ha [2, 13]: 95 to 100%; pest or weed control at 70 g/ha [2, 13]: 95 to 100%; pest or weed control at 140 g/ha [2, 13]: 95 to 100%; pest or weed control at 35 g/ha [2, 14]: 75 to 84%; pest or weed control at 70 g/ha [2, 14]: 85 to 94%; pest or weed control at 140 g/ha [2, 14]: 95 to 100%
